Experimental data: EPA's CvTdb concentration-time database

What was measured:
Assay in all cases: concentration in plasma after dosing
Rat [1] = settings: 1.5 h; dosed: DL-Camphor; 6 mg/kg; iv; Female; F344
Rat [2] = settings: dosed: DL-Camphor, 6 mg/kg, iv, Male, F344
Rat [3] = settings: dosed: DL-Camphor, 6 mg/kg, iv, Male, F344; remark: listed apart in the source
Rat [4] = settings: 1.5 h; dosed: DL-Camphor; 6 mg/kg; iv; Male; F344
Rat [5] = settings: dosed: DL-Camphor, 6 mg/kg, iv, Female, F344
Rat [6] = settings: 6 h; dosed: DL-Camphor; 6 mg/kg; iv; Male; F344
Rat [7] = settings: dosed: DL-Camphor, 6 mg/kg, iv, Male, F344; remark: listed apart in the source
Rat [8] = settings: dosed: DL-Camphor, 6 mg/kg, iv, Female, F344; remark: listed apart in the source
Rat [9] = settings: dosed: DL-Camphor, 6 mg/kg, iv, Female, F344; remark: listed apart in the source
Rat [10] = settings: dosed: DL-Camphor, 6 mg/kg, iv, Male, F344; remark: listed apart in the source
Rat [11] = settings: dosed: DL-Camphor, 6 mg/kg, iv, Male, F344; remark: listed apart in the source
Rat [12] = settings: dosed: DL-Camphor, 6 mg/kg, iv, Female, F344; remark: listed apart in the source
Rat [13] = settings: dosed: DL-Camphor, 6 mg/kg, iv, Female, F344; remark: listed apart in the source
Rat [14] = settings: dosed: DL-Camphor, 6 mg/kg, iv, Male, F344; remark: listed apart in the source
Rat [15] = settings: 1.5 h; dosed: DL-Camphor; 6 mg/kg; iv; Female; F344; remark: listed apart in the source
Rat [16] = settings: dosed: DL-Camphor, 6 mg/kg, iv, Male, F344; remark: listed apart in the source
Rat [17] = settings: dosed: DL-Camphor, 6 mg/kg, iv, Male, F344; remark: listed apart in the source
Rat [18] = settings: dosed: DL-Camphor, 6 mg/kg, iv, Female, F344; remark: listed apart in the source
Rat [19] = settings: dosed: DL-Camphor, 6 mg/kg, iv, Male, F344; remark: listed apart in the source
Rat [20] = settings: 1 h; dosed: DL-Camphor; 6 mg/kg; iv; Female; F344
Rat [21] = settings: 1 h; dosed: DL-Camphor; 6 mg/kg; iv; Female; F344; remark: listed apart in the source
Rat [22] = settings: dosed: DL-Camphor, 6 mg/kg, iv, Male, F344; remark: listed apart in the source
Rat [23] = settings: dosed: DL-Camphor, 6 mg/kg, iv, F344
Rat [24] = settings: dosed: DL-Camphor, 6 mg/kg, iv, Female, F344; remark: listed apart in the source
Rat [25] = settings: dosed: DL-Camphor, 6 mg/kg, iv, Female, F344; remark: listed apart in the source

CC12CCC(CC1=O)C2(C)C (racemic) [DL-Camphor]
Settings	concentration in plasma [ng/mL]
Rat [1]	240
Rat [4]	228
Rat [6]	87
Rat [15]	121
Rat [20]	391
Rat [21]	411

Settings	concentration in plasma [ng/mL]
Rat [2], 2 h	205
Rat [2], 5 min	3700
Rat [3], 0.5 h	648
Rat [3], 4 h	127
Rat [5], 0.25 h	132
Rat [5], 6 h	70.2
Rat [7], 0.25 h	1680
Rat [7], 1.5 h	197
Rat [8], 0.5 h	848
Rat [8], 4 h	62.7
Rat [9], 0.25 h	1520
Rat [9], 6 h	18.3
Rat [10], 0.75 h	545
Rat [10], 8 h	49.1
Rat [11], 0.75 h	577
Rat [11], 8 h	31.3
Rat [12], 0.5 h	612
Rat [12], 4 h	61.7
Rat [13], 0.75 h	526
Rat [13], 8 h	98.3
Rat [14], 1 h	257
Rat [14], 10 h	77.4
Rat [16], 0.25 h	1710
Rat [16], 6 h	88.1
Rat [17], 0.5 h	258
Rat [17], 4 h	135
Rat [18], 2 h	152
Rat [18], 5 min	2850
Rat [19], 2 h	205
Rat [19], 5 min	4050
Rat [22], 1 h	411
Rat [22], 10 h	35
Rat [24], 2 h	191
Rat [24], 5 min	3070
Rat [25], 0.75 h	114
Rat [25], 8 h	46.7

concentration in plasma [ng/mL], Rat [23]
Settings	Female	Male
0.25 h	1250	1350
0.5 h	731	839
0.75 h	527	617
1 h	96	326
1.5 h	332	196
2 h	221	186
4 h	65.9	138
5 min	3000	4140
6 h	222	76.7
8 h	–	31
10 h	10.3	27.3
